The text below walks through data of patent publication US20250108038A1 (priority 2023, published 2025).

The term half-life denotes the time needed for the level to fall by half in the phase considered. Low values mean fast loss, high ones slow loss. For orientation: inhibition means the relative decrease from the control value, in per cent. In general, IC50 refers to the concentration needed to halve the response being measured.

“And” between values parts separate entries of the source, which are not always exact repeats. Equal values may be shown once. Read-outs that look alike come from different tables or passages of the source.

The nature of one series: in vitro. The note with it: beagle, dog, plasma.
The nature of series [1]: Stability in beagle dog plasma. The note with it: 2.0 μM.
Description: Pooled (N≥3) male SD rat, beagle dog and mixed gender human plasma with EDTA-K2 as anticoagulant were purchased from BioIVT (NY, USA) and stored in a −70° C. freezer before use.
Incubations were conducted in 96-well plate format. The time points defined for this study are 0, 5, 15, 30 and 60 minutes.
For positive controls, the rat plasma was spiked with enalapril, the dog plasma spiked with bisacodyl and the human plasma was spiked with propantheline. All spiked plasma sample plates were incubated in a water bath at 37° C. with shaking.
At end of each time point, samples were immediately quenched with three volume of cold quenching solution. All sample plates were mixed thoroughly by shaking for approximately 10 minutes and centrifuged at 3220×g for 15 minutes. Subsequently, 100 μL of supernatant was removed from each well, mixed with 100 μL water in a new 96-well plate and subjected to LC-MS/MS analysis.
Concentrations of test article, metabolite, and control compounds in the samples were analyzed by LC-MS/MS semi-quantitatively. […] The peak area ratios of analyte/internal standard were used to semi-quantitatively determine the concentrations.
The peak area ratios (PAR) of analyte/internal standard were used to semi-quantitatively determine the concentration of test article and control compounds, and calculate the percent remaining with the following equation:
The elimination rate (ke) was calculated from a log linear plot of % remaining versus time. The half-life was calculated using the following equation:
The next series concerns the target T1, CYP1A2 (Homo sapiens, UniProt P05177).
T1 sequence (P05177 1-516): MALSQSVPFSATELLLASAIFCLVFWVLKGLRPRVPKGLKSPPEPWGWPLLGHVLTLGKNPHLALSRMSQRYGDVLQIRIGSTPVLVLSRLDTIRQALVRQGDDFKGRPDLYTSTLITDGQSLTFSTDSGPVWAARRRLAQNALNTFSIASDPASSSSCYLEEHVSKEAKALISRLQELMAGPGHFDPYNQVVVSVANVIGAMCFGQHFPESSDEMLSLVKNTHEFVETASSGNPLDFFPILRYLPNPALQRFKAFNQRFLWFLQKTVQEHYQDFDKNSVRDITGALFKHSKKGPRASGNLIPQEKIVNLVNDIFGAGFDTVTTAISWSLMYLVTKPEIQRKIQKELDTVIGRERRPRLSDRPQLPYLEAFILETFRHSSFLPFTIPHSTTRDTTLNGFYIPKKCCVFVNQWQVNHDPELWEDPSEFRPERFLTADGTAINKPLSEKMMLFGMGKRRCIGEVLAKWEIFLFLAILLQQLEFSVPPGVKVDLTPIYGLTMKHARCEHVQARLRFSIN
Description: in vitro. Conditions: both, microsomes, pH 7.4.

Series [2] concerns the target T2, CYP2C19 (Homo sapiens, UniProt P33261). Description: biochemical.
Series [3] has as its target T2, CYP2C19. As to the kind of experiment: in vitro. Conditions: both, pH 7.4.
Series [4] addresses T3, MATE1 (Homo sapiens, UniProt Q96FL8).
T3 sequence (Q96FL8 1-570): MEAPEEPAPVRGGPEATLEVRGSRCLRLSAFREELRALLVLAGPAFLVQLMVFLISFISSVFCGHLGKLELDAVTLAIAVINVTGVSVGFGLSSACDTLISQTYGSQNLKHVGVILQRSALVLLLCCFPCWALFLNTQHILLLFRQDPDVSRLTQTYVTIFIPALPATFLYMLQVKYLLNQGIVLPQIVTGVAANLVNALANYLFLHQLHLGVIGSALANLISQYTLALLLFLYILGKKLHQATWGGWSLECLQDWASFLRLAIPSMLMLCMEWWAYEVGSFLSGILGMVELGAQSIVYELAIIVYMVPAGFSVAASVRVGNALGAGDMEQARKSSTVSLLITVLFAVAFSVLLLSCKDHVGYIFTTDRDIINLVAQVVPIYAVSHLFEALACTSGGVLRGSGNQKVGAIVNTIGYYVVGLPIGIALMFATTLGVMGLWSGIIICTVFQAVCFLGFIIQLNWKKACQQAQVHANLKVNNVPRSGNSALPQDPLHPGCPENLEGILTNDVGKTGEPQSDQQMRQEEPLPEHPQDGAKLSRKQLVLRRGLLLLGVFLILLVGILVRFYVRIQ
Description: (§1) Uptake experiments were performed using HEK293 cells stably expressing the respective uptake transporters.
(§2) Cells were cultured at 37° C. in a humidified atmosphere containing 5% CO2 and were plated onto standard 96-well tissue culture plates.
(§3) Before the experiment, the medium was removed, and the cells were washed twice with 100 μL of pre-warmed (37° C.) assay buffer listed in Table 15. The cells were pre-incubated at 37° C. for 30 minutes in assay buffer containing the test article at appropriate concentrations (Table 16), appropriate solvents for solvent controls and the reference inhibitor for reference inhibitor wells. After the pre-incubation step solutions were removed. Uptake experiments were performed at 37° C. in 50 μL of assay buffer containing the probe substrate and the test article or solvent and controls.
(§4) After the experiment, cells were washed twice with 100 μL of appropriate cold buffer and lysed with 150 μL scintillation cocktail. Radiolabeled probe substrate transport was determined by liquid scintillation counting.
(§5) Uptake of the probe substrate in control cells provided background activity values for all data points.

In series [5] the target is T3, MATE1. As to the kind of experiment: in vitro.
Description: as §1, §2, §3, §4, §5
For series [6], the target named is T4, MATE2-K (Homo sapiens, UniProt Q86VL8).
T4 sequence (Q86VL8 1-566 isoform Q86VL8-3): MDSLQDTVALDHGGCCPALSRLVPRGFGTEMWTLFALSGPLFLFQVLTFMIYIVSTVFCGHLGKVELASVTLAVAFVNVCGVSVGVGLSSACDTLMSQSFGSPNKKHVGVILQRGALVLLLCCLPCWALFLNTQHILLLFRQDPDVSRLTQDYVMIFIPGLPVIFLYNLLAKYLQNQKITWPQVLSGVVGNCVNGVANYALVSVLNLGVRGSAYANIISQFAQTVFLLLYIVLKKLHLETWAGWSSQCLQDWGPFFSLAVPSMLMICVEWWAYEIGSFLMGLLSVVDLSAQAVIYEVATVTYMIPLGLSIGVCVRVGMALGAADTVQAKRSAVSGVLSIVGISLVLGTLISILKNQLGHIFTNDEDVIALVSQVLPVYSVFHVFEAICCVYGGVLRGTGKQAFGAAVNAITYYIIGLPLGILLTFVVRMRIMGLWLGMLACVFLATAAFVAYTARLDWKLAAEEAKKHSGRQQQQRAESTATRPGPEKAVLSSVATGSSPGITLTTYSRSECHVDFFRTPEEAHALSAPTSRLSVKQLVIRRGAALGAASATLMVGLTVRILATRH
Description: as §1, §2, §3, §4, §5
The target of series [7] is T4, MATE2-K. As to the kind of experiment: in vitro.
Description: as §1, §2, §3, §4, §5
In the next series the target is T5, CYP2C8 (Homo sapiens, UniProt P10632).
T5 sequence (P10632 1-490): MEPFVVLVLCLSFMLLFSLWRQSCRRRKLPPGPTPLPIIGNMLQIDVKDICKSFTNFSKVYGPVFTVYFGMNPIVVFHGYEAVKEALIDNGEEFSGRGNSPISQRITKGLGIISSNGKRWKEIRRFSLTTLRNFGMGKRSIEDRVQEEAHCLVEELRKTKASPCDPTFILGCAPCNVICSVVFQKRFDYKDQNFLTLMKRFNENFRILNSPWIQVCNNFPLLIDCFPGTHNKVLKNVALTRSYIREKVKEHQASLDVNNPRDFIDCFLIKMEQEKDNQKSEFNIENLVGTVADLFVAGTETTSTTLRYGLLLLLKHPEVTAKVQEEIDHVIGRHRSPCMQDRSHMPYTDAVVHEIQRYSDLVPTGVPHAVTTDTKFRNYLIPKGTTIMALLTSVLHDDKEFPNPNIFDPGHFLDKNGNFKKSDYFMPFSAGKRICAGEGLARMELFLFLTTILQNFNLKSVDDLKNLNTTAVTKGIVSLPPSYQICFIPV
Description: in vitro. Conditions: both, pH 7.4.

Another series has as its target CYP2D6 (Homo sapiens, UniProt P10635). Description: in vitro. Conditions: both, pH 7.4.
The target in a further series is CYP2C9 (Homo sapiens, UniProt P11712). As to the kind of experiment: in vitro. Conditions: both, pH 7.4.
Chain of CYP2C9 (P11712 whole entry): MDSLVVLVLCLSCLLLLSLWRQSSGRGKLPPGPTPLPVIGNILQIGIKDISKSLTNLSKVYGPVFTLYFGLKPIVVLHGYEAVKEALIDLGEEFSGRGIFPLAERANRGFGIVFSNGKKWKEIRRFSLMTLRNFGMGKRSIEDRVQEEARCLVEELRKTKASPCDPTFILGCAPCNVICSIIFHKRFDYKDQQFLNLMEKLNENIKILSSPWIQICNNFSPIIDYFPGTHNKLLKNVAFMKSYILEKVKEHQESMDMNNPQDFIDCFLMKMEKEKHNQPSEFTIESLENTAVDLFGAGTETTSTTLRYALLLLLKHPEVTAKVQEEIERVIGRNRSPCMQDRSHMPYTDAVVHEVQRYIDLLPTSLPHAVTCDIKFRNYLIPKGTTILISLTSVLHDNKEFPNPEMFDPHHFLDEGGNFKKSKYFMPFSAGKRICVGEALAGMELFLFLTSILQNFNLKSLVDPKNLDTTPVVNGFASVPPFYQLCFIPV

T2 sequence (P33261 whole entry): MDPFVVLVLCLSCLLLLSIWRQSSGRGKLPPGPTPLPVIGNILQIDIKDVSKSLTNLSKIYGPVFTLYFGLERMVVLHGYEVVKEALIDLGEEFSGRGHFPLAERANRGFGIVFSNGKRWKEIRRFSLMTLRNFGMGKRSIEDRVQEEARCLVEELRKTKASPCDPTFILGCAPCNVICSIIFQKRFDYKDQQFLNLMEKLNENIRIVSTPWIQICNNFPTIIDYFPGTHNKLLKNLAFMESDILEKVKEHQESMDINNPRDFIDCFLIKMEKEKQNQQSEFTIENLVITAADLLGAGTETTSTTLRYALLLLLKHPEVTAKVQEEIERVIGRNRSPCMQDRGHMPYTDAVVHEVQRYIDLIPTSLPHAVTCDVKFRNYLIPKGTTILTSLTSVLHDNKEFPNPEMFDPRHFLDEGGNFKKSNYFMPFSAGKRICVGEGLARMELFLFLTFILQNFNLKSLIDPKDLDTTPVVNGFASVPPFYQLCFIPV
Chain of CYP2D6 (P10635 whole entry): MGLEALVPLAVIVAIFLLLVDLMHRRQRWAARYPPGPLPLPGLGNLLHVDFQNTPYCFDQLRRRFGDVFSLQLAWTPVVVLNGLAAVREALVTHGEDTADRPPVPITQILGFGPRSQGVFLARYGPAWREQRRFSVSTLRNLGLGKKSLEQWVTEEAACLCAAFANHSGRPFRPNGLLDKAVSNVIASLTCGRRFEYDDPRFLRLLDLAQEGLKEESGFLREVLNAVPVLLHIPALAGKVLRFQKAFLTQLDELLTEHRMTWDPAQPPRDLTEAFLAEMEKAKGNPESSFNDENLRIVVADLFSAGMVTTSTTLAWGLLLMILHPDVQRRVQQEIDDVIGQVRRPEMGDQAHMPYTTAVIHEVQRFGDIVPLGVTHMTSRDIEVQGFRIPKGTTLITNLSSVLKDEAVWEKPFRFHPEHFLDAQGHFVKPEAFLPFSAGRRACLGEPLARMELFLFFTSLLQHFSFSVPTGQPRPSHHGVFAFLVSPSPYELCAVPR

`CC(=O)Oc1ccc(C(c2ccc(OC(C)=O)cc2)c2ccccn2)cc1` [Bisacodyl, reference compound]: the half-life at 2 μM in the series “in vitro” is 3.6 min. For the same molecule, the “% Remaining” value is listed as 100% in series [1] (0 min); 45.9% in [1] (5 min); 8.79% in series [1] (15 min); 0.34% in series [1] (30 min); 0.00% in series [1] (60 min). Also, the “Aa/Ai Mean (N = 2)” value stood at 1.49 in series [1] (0 min); 0.68 in series [1] (5 min); 0.13 in series [1] (15 min); 0.01 in [1] (30 min); 0.00 in series [1] (60 min).
Consider `COCCCC/C(=N\OCCN)c1ccc(C(F)(F)F)cc1` [Fluvoxamine], for which, at CYP1A2, the inhibition at 50 µM worked out at 101%.
On CYP2C19 [2], `COc1ccc2[nH]c([S+]([O-])Cc3ncc(C)c(OC)c3C)nc2c1` (stereo not shown) [Omeprazole] gave an IC50 of 7.36 µM. In addition, at CYP2C19 [3], the inhibition at 50 µM was 89.9%.
`CCc1nc(N)nc(N)c1-c1ccc(Cl)cc1` [Pyrimethamine]: the inhibition was 100% against MATE1 [4]; 100% at MATE1 [4] (5 µM); 101% against MATE2-K [6]; 101% and 102% and 100% at MATE2-K [6] (5 µM). Also, the inhibition at 5 µM came to 102% on MATE1 [5] and 95% against MATE2-K [7]. Further, the inhibition at 5 μM against MATE1 [5] was found to be 101%; against MATE2-K [7], 98%.
Take `O=c1c(O)c(-c2ccc(O)c(O)c2)oc2cc(O)cc(O)c12` [Quercetin]: the inhibition at 50 µM against CYP2C8 stood at 102%.
For `C=C[C@H]1C[N@@]2CC[C@H]1C[C@@H]2[C@@H](O)c1ccnc2ccc(OC)cc12` [Quinidine], the inhibition at 5 µM on CYP2D6 stood at 96.2%.
Consider `Nc1ccc(S(=O)(=O)Nc2ccnn2-c2ccccc2)cc1` [Sulfaphenazole], for which the inhibition at 50 µM against CYP2C9 came out at 98.7%.
